From patent publication US9187524B2, “Broad spectrum antibiotic arylomycin analogs” (The Scripps Research Institute, priority 2010, dated 2015)
In brackets after ≈: the same amount, converted by molar mass. Read-outs that look alike come from different tables or passages of the source.

What was measured:
[1] = test system: Lactobacillus acidophilus; test: microbe, parasite or virus in culture; format: cell-based; conditions: Table 13
[2] = test system: P. aeruginosa PAS2006 (SPase P84S); test: microbe, parasite or virus in culture; format: cell-based; conditions: Pseudomonas aeruginosa, read-out: MIC, P. aeruginosa PAS2006
Enterococcus faecalis = test: microbe, parasite or virus in culture; format: cell-based; conditions: Table 13
Lactobacillus plantarum = test: microbe, parasite or virus in culture; format: cell-based; conditions: Lactiplantibacillus plantarum, Table 13
C. glutamicum = test: microbe, parasite or virus in culture; format: cell-based, Corynebacterium glutamicum; conditions: for MIC: Corynebacterium glutamicum
[3] = test system: Staphylococcus haemolyticus; test: microbe, parasite or virus in culture; format: cell-based; conditions: Table 13
Clostridium difficile = test: microbe, parasite or virus in culture; format: cell-based; conditions: Clostridioides difficile, Table 13
[4] = target: T1, truncated wild type E. coli SPase (Escherichia coli, UniProt P00803); test: biochemical; format: binding
T1 construct: a truncated wild type E. coli SPase that lacks the N-terminal membrane helices; made in house; host or cells: E. coli BL21(DE3)
T1 sequence (P00803 76-324, looked up, natural form): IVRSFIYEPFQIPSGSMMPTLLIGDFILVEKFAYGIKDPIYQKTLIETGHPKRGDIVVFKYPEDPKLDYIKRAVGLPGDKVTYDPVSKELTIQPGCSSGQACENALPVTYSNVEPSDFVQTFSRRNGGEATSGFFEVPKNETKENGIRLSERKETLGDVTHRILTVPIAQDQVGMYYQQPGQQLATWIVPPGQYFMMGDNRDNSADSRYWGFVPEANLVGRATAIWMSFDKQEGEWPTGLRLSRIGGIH

[5] = target: T2, full-length P84S E. coli SPase (Ser-variant) (Escherichia coli, UniProt P00803, P84S); test: biochemical; format: binding
T2 construct: Full length His-tagged E. coli SPase proteins were expressed in BL21(DE3); His6; made in house; host or cells: E. coli BL21(DE3)
T2 sequence (P00803 whole entry P84S): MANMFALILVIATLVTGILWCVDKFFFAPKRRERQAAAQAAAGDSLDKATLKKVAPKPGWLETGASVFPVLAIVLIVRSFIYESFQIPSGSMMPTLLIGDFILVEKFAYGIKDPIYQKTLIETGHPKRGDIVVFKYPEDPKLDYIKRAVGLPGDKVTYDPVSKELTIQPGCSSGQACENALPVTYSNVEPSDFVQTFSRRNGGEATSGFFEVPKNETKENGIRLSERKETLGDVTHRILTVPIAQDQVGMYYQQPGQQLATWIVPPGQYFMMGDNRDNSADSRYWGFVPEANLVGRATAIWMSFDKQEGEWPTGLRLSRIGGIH

[6] = test system: Staphylococcus aureus (different strains); format: cell-based; conditions: Table 13; multiple values: different strains
Bacillus subtilis = test: microbe, parasite or virus in culture; format: cell-based; conditions: Table 13
[7] = target: T3, P84S variant of truncated E. coli SPase (Escherichia coli, UniProt P00803, P84S); test: biochemical; format: binding
T3 construct: a truncated wild type E. coli SPase that lacks the N-terminal membrane helices; made in house; host or cells: E. coli BL21(DE3)
T3 sequence (P00803 76-324, looked up, stated change not applied): as the sequence (P00803 76-324, looked up, natural form) above

Yersinia pestis = test: microbe, parasite or virus in culture; format: cell-based; conditions: read-out: MIC, Yersinia pestis
[8] = test system: lepB(P84L) P. aeruginosa PAO1; test: microbe, parasite or virus in culture; format: cell-based, Pseudomonas aeruginosa; conditions: for MIC: Pseudomonas aeruginosa
Bacteroides fragilis = test: microbe, parasite or virus in culture; format: cell-based; conditions: Table 13
B. brevis = test: microbe, parasite or virus in culture; format: cell-based, Brevibacillus brevis; conditions: for MIC: Brevibacillus brevis
Francisella tularensis = test: microbe, parasite or virus in culture; format: cell-based
Lactobacillus gasseri = test: microbe, parasite or virus in culture; format: cell-based; conditions: Table 13
Klebsiella pneumoniae = test: microbe, parasite or virus in culture; format: cell-based; conditions: Table 13
S. pyogenes = test: microbe, parasite or virus in culture; format: cell-based, Streptococcus pyogenes; conditions: for MIC: Streptococcus pyogenes
C. efficiens = test: microbe, parasite or virus in culture; format: cell-based; conditions: Corynebacterium efficiens
[9] = test system: wild type S. epidermidis RP62A; test: microbe, parasite or virus in culture; format: cell-based, Staphylococcus epidermidis; conditions: Staphylococcus epidermidis
Helicobacter pylori = test: microbe, parasite or virus in culture; format: cell-based
L. lactis = test: microbe, parasite or virus in culture; format: cell-based, Lactococcus lactis
R. opacus = test: microbe, parasite or virus in culture; format: cell-based; conditions: Rhodococcus opacus
Clostridium bolteae = test: microbe, parasite or virus in culture; format: cell-based; conditions: Enterocloster bolteae, Table 13
Rhodococcus erythropolis = test: microbe, parasite or virus in culture; format: cell-based; conditions: Table 13
S. agalactiae = test: microbe, parasite or virus in culture; format: cell-based, Streptococcus agalactiae; conditions: for MIC: Streptococcus agalactiae
S. aureus COL = test: microbe, parasite or virus in culture; format: cell-based; conditions: Staphylococcus aureus, read-out: MIC, S. aureus COL
[10] = test system: E. coli PAS0232 (SPase P84S); test: microbe, parasite or virus in culture; format: cell-based; conditions: Escherichia coli, read-out: MIC, E. coli PAS0232
[11] = test system: lepB(P84L) E. coli MG1655; test: microbe, parasite or virus in culture; format: cell-based, Escherichia coli; conditions: for MIC: Escherichia coli
[12] = target: T4, full-length wild type E. coli SPase (Pro-variant) (Escherichia coli, UniProt P00803); test: biochemical; format: binding
T4 construct: Full length His-tagged E. coli SPase proteins were expressed in BL21(DE3); His6; made in house; host or cells: E. coli BL21(DE3)

[13] = test system: E. coli strains harboring the indicated amino acid at SPase residue 84; test: microbe, parasite or virus in culture; format: cell-based; conditions: Escherichia coli
Prevotella copris = test: microbe, parasite or virus in culture; format: cell-based; conditions: Table 13
[14] = Table 2B, SPase without resistance-conferring Pro

## CCCCCCCCCCCCCCCC(=O)N(C)[C@H](CO)C(=O)N[C@H](C)C(=O)NCC(=O)N(C)[C@@H]1C(=O)N[C@@H](C)C(=O)N[C@H](C(=O)O)Cc2ccc(O)c(c2)-c2cc1ccc2O [Arylomycin C16]
[1]
  MIC: > 128 µg/mL
[2]
  MIC: 8 µg/mL (≈ 9.08 µM)
Enterococcus faecalis
  MIC: > 64 µg/mL
Lactobacillus plantarum
  MIC: > 128 µg/mL
C. glutamicum; Table 4, read-out: MIC, C. glutamicum
  MIC: 2 µg/mL (≈ 2.27 µM)
C. glutamicum; text b755, read-out: MIC, Corynebacterium glutamicum
  MIC: 2 µg/mL (≈ 2.27 µM)
C. glutamicum; Table 13, […]
  MIC, Corynebacterium glutamicum: 2 µg/mL (≈ 2.27 µM)
[3]
  MIC: 2 µg/mL (≈ 2.27 µM)
Clostridium difficile
  MIC: > 16 µg/mL
[4]
  Kd: 979 ± 69 nM
[5]
  Kd: 5.7 ± 1 nM
[6]
  MIC, Staphylococcus aureus: 16 to 32 µg/mL
Bacillus subtilis
  MIC: > 128 µg/mL
[7]
  Kd: 39 ± 15 nM
Yersinia pestis
  MIC: 4 µg/mL (≈ 4.54 µM)
[8]; PAO1, read-out: MIC, P. aeruginosa P84L
  MIC: 4 µg/mL (≈ 4.54 µM)
[8]; PAO1, read-out: MIC, Sensitive Pa
  MIC: 8 µg/mL (≈ 9.08 µM)
[8]; [14]
  MIC, Sensitive Pa: 8 µg/mL (≈ 9.08 µM)
Bacteroides fragilis
  MIC: > 16 µg/mL
B. brevis; Table 4, read-out: MIC, B. brevis
  MIC: > 64 µg/mL
B. brevis; Table 13, […], read-out: MIC, Brevibacillus brevis
  MIC: > 64 µg/mL
B. brevis; MHBII broth and nutrient broth
  activity against B. brevis: no activity
Francisella tularensis; read-out: MIC, Francisella tularensis clinical isolate
  MIC: 32 µg/mL (≈ 36.3 µM)
Francisella tularensis; read-out: MIC, Francisella tularensis clinical isolates, 8 of nineteen clinical isolates
  MIC: 4 to 16 µg/mL (≈ 4.54 to 18.2 µM)
Francisella tularensis; read-out: MIC, Francisella tularensis clinical isolates, remainder of nineteen clinical isolates
  MIC: > 64 µg/mL
Lactobacillus gasseri
  MIC: > 128 µg/mL
Klebsiella pneumoniae
  MIC: > 128 µg/mL
S. pyogenes; Table 4, read-out: MIC, S. pyogenes
  MIC: 8 µg/mL (≈ 9.08 µM)
S. pyogenes; Table 13, […], read-out: MIC, Streptococcus pyogenes
  MIC: 16 µg/mL (≈ 18.2 µM)
S. pyogenes; Table 14
  MIC, S. pyogenes: 8 µg/mL (≈ 9.08 µM)
C. efficiens; Table 4, read-out: MIC, C. efficiens
  MIC: 16 µg/mL (≈ 18.2 µM)
C. efficiens; Table 13, […], read-out: MIC, Corynebacterium efficiens
  MIC: > 64 µg/mL
C. efficiens; text b755, read-out: MIC, Corynebacterium efficiens
  MIC: 16 µg/mL (≈ 18.2 µM)
[9]; Table 11, […], read-out: MIC, S. epidermidis RP62A
  MIC: 0.25 µg/mL (≈ 0.284 µM)
[9]; Table 13, […], read-out: MIC, Staphylococcus epidermidis
  MIC: 0.25 µg/mL (≈ 0.284 µM)
[9]; read-out: MIC, S. epidermidis
  MIC: 0.25 µg/mL (≈ 0.284 µM)
[9]; read-out: MIC, Sensitive Se
  MIC: 0.5 µg/mL (≈ 0.567 µM)
Helicobacter pylori; Table 13, […], read-out: MIC, Helicobacter pylori
  MIC: 4 µg/mL (≈ 4.54 µM)
Helicobacter pylori; read-out: MIC, H. pylori
  MIC: 4 µg/mL (≈ 4.54 µM)
L. lactis; Lactococcus lactis, Table 4
  MIC: 16 µg/mL (≈ 18.2 µM)
L. lactis; Table 13, multiple values: different strains
  MIC, Lactococcus lactis: 16 µg/mL (≈ 18.2 µM)
L. lactis; one SPase with Leu29
  sensitivity of Lactococcus lactis spp. cremonis: sensitive
L. lactis; single SPase with Leu29
  sensitivity of Lactococcus lactis spp. lactii: resistant
R. opacus; Table 4, read-out: MIC, R. opacus
  MIC: 1 µg/mL (≈ 1.13 µM)
R. opacus; Table 13, […], read-out: MIC, Rhodococcus opacus
  MIC: 2 µg/mL (≈ 2.27 µM)
Clostridium bolteae
  MIC: > 16 µg/mL
Rhodococcus erythropolis
  MIC: 16 µg/mL (≈ 18.2 µM)
S. agalactiae; Table 4, read-out: MIC, S. agalactiae
  MIC: > 128 µg/mL
S. agalactiae; Table 13, […], read-out: MIC, Streptococcus agalactiae
  MIC: > 128 µg/mL
S. agalactiae; Table 14
  MIC, S. agalactiae: >128 µg/mL
S. aureus COL
  MIC: 12 µg/mL (≈ 13.6 µM)
[10]
  MIC: 2 µg/mL (≈ 2.27 µM)
[11]; MG1655, read-out: MIC, E. coli P84L
  MIC: 2 µg/mL (≈ 2.27 µM)
[11]; MG1655, read-out: MIC, Sensitive Ec
  MIC: 0.5 µg/mL (≈ 0.567 µM)
[11]; [14]
  MIC, Sensitive Ec: 0.5 µg/mL (≈ 0.567 µM)
[12]
  Kd: 60 ± 16 nM
[13]; read-out: MIC, E. coli SPase residue 84 His variant
  MIC: 4 µg/mL (≈ 4.54 µM)
[13]; read-out: MIC, E. coli SPase residue 84 Phe or His variant
  MIC: 2 µg/mL (≈ 2.27 µM)
[13]; read-out: MIC, E. coli with Pro at SPase residue 84
  MIC: > 256 µg/mL
[13]; read-out: MIC, E. coli with any other amino acid at SPase residue 84
  MIC: ≤ 16 µg/mL
Prevotella copris
  MIC: > 16 µg/mL
